Results: article PMC5267425, “Identification of small molecule modulators of HIV-1 Tat and Rev protein accumulation” (Retrovirology, 2017)
Values joined by “and” are separate entries in the source; they are usually repeats but may differ in a detail not shown here. Identical values can stand only once.

System: cellular gene expression in HeLa rtTA HIV∆Mls cells

For `Cc1cc(NCc2cccnc2)n2ncc(-c3ccc(Cl)cc3)c2n1` [Compound 791, 3-(4-chlorophenyl)-5-methyl-N-(3-pyridinylmethyl)pyrazolo[1,5-a]pyrimidin-7-amine], the LYSMD1 expression level (gene LYSMD1, 9147791-treated cells, two replicates) was 6.83 and 7.15, the MAP3K12 expression level (gene MAP3K12, 9147791-treated cells, two replicates) was 10.58 and 11.11 and the MBD6 expression level (gene MBD6, 9147791-treated cells, two replicates) was 19.55 and 19.21. The MBLAC2 expression level (gene MBLAC2, 9147791-treated cells, two replicates) was 3.53 and 3.60, the MED1 expression level (gene MED1, 9147791-treated cells, two replicates) was 16.72 and 17.76 and the MKKS expression level (gene MKKS, 9147791-treated cells, two replicates) was 33.76 and 31.64. For the same compound, the MLKL expression level (gene MLKL, 9147791-treated cells, two replicates) was 8.65 and 8.80, the MORC2 expression level (gene MORC2, 9147791-treated cells, two replicates) was 14.30 and 13.93 and the MRPL1 expression level (gene MRPL1, 9147791-treated cells, two replicates) was 13.37 and 12.84. For the same compound, the MRPS16 expression level (gene MRPS16, 9147791-treated cells, two replicates) was 56.39 and 57.78, the MRPS18B expression level (gene MRPS18B, 9147791-treated cells, two replicates) was 84.33 and 82.56 and the MSL1 expression level (gene MSL1, 9147791-treated cells, two replicates) was 19.35 and 20.08. For the same compound, the MTIF2 expression level (gene MTIF2, 9147791-treated cells, two replicates) was 23.18 and 24.37, the MXI1 expression level (gene MXI1, 9147791-treated cells, two replicates) was 11.96 and 11.72 and the MYSM1 expression level (gene MYSM1, 9147791-treated cells, two replicates) was 6.50 and 6.96. For the same compound, the NADK expression level (gene NADK, 9147791-treated cells, two replicates) was 51.36 and 49.09, the NFX1 expression level (gene NFX1, 9147791-treated cells, two replicates) was 16.88 and 17.47 and the NHLRC2 expression level (gene NHLRC2, 9147791-treated cells, two replicates) was 5.90 and 6.13. The NR2C1 expression level (gene NR2C1, 9147791-treated cells, two replicates) was 12.80 and 13.28, the NSMAF expression level (gene NSMAF, 9147791-treated cells, two replicates) was 20.81 and 21.54 and the NT5DC3 expression level (gene NT5DC3, 9147791-treated cells, two replicates) was 2.73 and 2.69. For the same compound, the NUFIP2 expression level (gene NUFIP2, 9147791-treated cells, two replicates) was 18.50 and 18.17, the OSMR expression level (gene OSMR, 9147791-treated cells, two replicates) was 33.63 and 36.47 and the OTUD6B expression level (gene OTUD6B, 9147791-treated cells, two replicates) was 9.61 and 9.84. For the same compound, the PATL1 expression level (gene PATL1, 9147791-treated cells, two replicates) was 30.78 and 31.35, the PEX19 expression level (gene PEX19, 9147791-treated cells, two replicates) was 25.90 and 26.36 and the PHF1 expression level (gene PHF1, 9147791-treated cells, two replicates) was 27.67 and 28.09. The PIP4K2C expression level (gene PIP4K2C, 9147791-treated cells, two replicates) was 17.91 and 18.93, the PLD3 expression level (gene PLD3, 9147791-treated cells, two replicates) was 114.37 and 115.61 and the PLD6 expression level (gene PLD6, 9147791-treated cells, two replicates) was 4.96 and 5.07. For the same compound, the PLEKHG4 expression level (gene PLEKHG4, 9147791-treated cells, two replicates) was 9.09 and 8.55, the PLRG1 expression level (gene PLRG1, 9147791-treated cells, two replicates) was 18.77 and 17.99 and the PNPO expression level (gene PNPO, 9147791-treated cells, two replicates) was 12.32 and 11.96. The POLR1B expression level (gene POLR1B, 9147791-treated cells, two replicates) was 13.48 and 13.61, the PORCN expression level (gene PORCN, 9147791-treated cells, two replicates) was 8.43 and 8.53 and the PPIE expression level (gene PPIE, 9147791-treated cells, two replicates) was 36.69 and 37.52. The PPPDE1 expression level (gene PPPDE1, 9147791-treated cells, two replicates) was 25.65 and 26.33, the PPPDE2 expression level (gene PPPDE2, 9147791-treated cells, two replicates) was 24.63 and 25.91 and the PRDX5 expression level (gene PRDX5, 9147791-treated cells, two replicates) was 527.71 and 539.87. The PRKAB1 expression level (gene PRKAB1, 9147791-treated cells, two replicates) was 9.24 and 9.53, the PRKAB2 expression level (gene PRKAB2, 9147791-treated cells, two replicates) was 9.63 and 9.56 and the PRKAG2 expression level (gene PRKAG2, 9147791-treated cells, two replicates) was 4.40 and 4.65. For the same compound, the PRPF38B expression level (gene PRPF38B, 9147791-treated cells, two replicates) was 24.17 and 23.91, the RAD23A expression level (gene RAD23A, 9147791-treated cells, two replicates) was 139.22 and 133.17 and the RAD51C expression level (gene RAD51C, 9147791-treated cells, two replicates) was 25.11 and 27.22. The RBM18 expression level (gene RBM18, 9147791-treated cells, two replicates) was 22.42 and 23.14, the RDH14 expression level (gene RDH14, 9147791-treated cells, two replicates) was 13.62 and 14.25 and the REPS1 expression level (gene REPS1, 9147791-treated cells, two replicates) was 11.08 and 11.40. For the same compound, the RETSAT expression level (gene RETSAT, 9147791-treated cells, two replicates) was 39.84 and 41.20, the RFNG expression level (gene RFNG, 9147791-treated cells, two replicates) was 19.96 and 19.40 and the RILPL1 expression level (gene RILPL1, 9147791-treated cells, two replicates) was 8.85 and 9.19. The RIPK2 expression level (gene RIPK2, 9147791-treated cells, two replicates) was 9.51 and 9.78, the RNF135 expression level (gene RNF135, 9147791-treated cells, two replicates) was 6.73 and 6.55 and the RNF139 expression level (gene RNF139, 9147791-treated cells, two replicates) was 14.33 and 14.56. For the same compound, the RNF146 expression level (gene RNF146, 9147791-treated cells, two replicates) was 8.67 and 9.36, the RNF212 expression level (gene RNF212, 9147791-treated cells, two replicates) was 23.40 and 24.53 and the RPRD1A expression level (gene RPRD1A, 9147791-treated cells, two replicates) was 17.67 and 18.23. The RPUSD3 expression level (gene RPUSD3, 9147791-treated cells, two replicates) was 51.54 and 51.13, the RTTN expression level (gene RTTN, 9147791-treated cells, two replicates) was 5.05 and 5.18 and the RUNDC1 expression level (gene RUNDC1, 9147791-treated cells, two replicates) was 7.46 and 7.03. The SDCCAG3 expression level (gene SDCCAG3, 9147791-treated cells, two replicates) was 69.16 and 66.70, the SENP1 expression level (gene SENP1, 9147791-treated cells, two replicates) was 10.13 and 10.39 and the SENP5 expression level (gene SENP5, 9147791-treated cells, two replicates) was 9.14 and 9.80. The SIKE1 expression level (gene SIKE1, 9147791-treated cells, two replicates) was 10.16 and 10.46, the SLC26A11 expression level (gene SLC26A11, 9147791-treated cells, two replicates) was 7.10 and 7.46 and the SLC35B3 expression level (gene SLC35B3, 9147791-treated cells, two replicates) was 9.59 and 9.09. The SLC38A6 expression level (gene SLC38A6, 9147791-treated cells, two replicates) was 8.14 and 8.35, the SLC39A6 expression level (gene SLC39A6, 9147791-treated cells, two replicates) was 55.62 and 53.39 and the SMEK2 expression level (gene SMEK2, 9147791-treated cells, two replicates) was 22.28 and 23.17. The SQSTM1 expression level (gene SQSTM1, 9147791-treated cells, two replicates) was 402.87 and 398.40, the ST6GALNAC4 expression level (gene ST6GALNAC4, 9147791-treated cells, two replicates) was 39.60 and 40.55 and the ST7L expression level (gene ST7L, 9147791-treated cells, two replicates) was 3.77 and 3.85. For the same compound, the STAMBP expression level (gene STAMBP, 9147791-treated cells, two replicates) was 26.17 and 25.95, the STK24 expression level (gene STK24, 9147791-treated cells, two replicates) was 98.53 and 99.63 and the STK36 expression level (gene STK36, 9147791-treated cells, two replicates) was 5.44 and 5.78. For the same compound, the STK40 expression level (gene STK40, 9147791-treated cells, two replicates) was 6.18 and 6.16, the STX4 expression level (gene STX4, 9147791-treated cells, two replicates) was 45.64 and 43.00 and the TBCCD1 expression level (gene TBCCD1, 9147791-treated cells, two replicates) was 7.66 and 8.12. For the same compound, the TGDS expression level (gene TGDS, 9147791-treated cells, two replicates) was 10.85 and 10.65, the TIGD2 expression level (gene TIGD2, 9147791-treated cells, two replicates) was 10.77 and 11.51 and the TMEM33 expression level (gene TMEM33, 9147791-treated cells, two replicates) was 13.53 and 12.82. For the same compound, the TMEM68 expression level (gene TMEM68, 9147791-treated cells, two replicates) was 5.74 and 5.79, the TMEM120B expression level (gene TMEM120B, 9147791-treated cells, two replicates) was 7.48 and 7.87 and the TMEM126B expression level (gene TMEM126B, 9147791-treated cells, two replicates) was 51.64 and 47.99. The TMEM134 expression level (gene TMEM134, 9147791-treated cells, two replicates) was 16.44 and 17.07, the TMEM167B expression level (gene TMEM167B, 9147791-treated cells, two replicates) was 13.61 and 13.31 and the TRIM38 expression level (gene TRIM38, 9147791-treated cells, two replicates) was 6.07 and 6.47. For the same compound, the TRMT2A expression level (gene TRMT2A, 9147791-treated cells, two replicates) was 11.24 and 11.68, the TRNT1 expression level (gene TRNT1, 9147791-treated cells, two replicates) was 14.44 and 15.17 and the TTC9C expression level (gene TTC9C, 9147791-treated cells, two replicates) was 44.37 and 45.86. The USP3 expression level (gene USP3, 9147791-treated cells, two replicates) was 15.95 and 16.26, the USP45 expression level (gene USP45, 9147791-treated cells, two replicates) was 4.03 and 4.15 and the VHL expression level (gene VHL, 9147791-treated cells, two replicates) was 23.74 and 22.96. The WDR73 expression level (gene WDR73, 9147791-treated cells, two replicates) was 10.95 and 11.17, the XPO5 expression level (gene XPO5, 9147791-treated cells, two replicates) was 32.34 and 33.37 and the ZBED5 expression level (gene ZBED5, 9147791-treated cells, two replicates) was 26.69 and 27.18. The ZBTB26 expression level (gene ZBTB26, 9147791-treated cells, two replicates) was 10.25 and 9.99, the ZBTB34 expression level (gene ZBTB34, 9147791-treated cells, two replicates) was 4.78 and 4.42 and the ZCCHC4 expression level (gene ZCCHC4, 9147791-treated cells, two replicates) was 6.80 and 6.69. The ZCCHC8 expression level (gene ZCCHC8, 9147791-treated cells, two replicates) was 17.17 and 17.82, the ZCCHC9 expression level (gene ZCCHC9, 9147791-treated cells, two replicates) was 6.71 and 6.52 and the ZFP30 expression level (gene ZFP30, 9147791-treated cells, two replicates) was 3.88 and 3.75. The ZFP36L2 expression level (gene ZFP36L2, 9147791-treated cells, two replicates) was 6.55 and 6.96, the ZFP64 expression level (gene ZFP64, 9147791-treated cells, two replicates) was 11.62 and 11.15 and the ZFYVE27 expression level (gene ZFYVE27, 9147791-treated cells, two replicates) was 15.03 and 14.85. For the same compound, the ZNF12 expression level (gene ZNF12, 9147791-treated cells, two replicates) was 10.78 and 10.46, the ZNF91 expression level (gene ZNF91, 9147791-treated cells, two replicates) was 4.92 and 4.68 and the ZNF133 expression level (gene ZNF133, 9147791-treated cells, two replicates) was 7.16 and 7.05. The ZNF184 expression level (gene ZNF184, 9147791-treated cells, two replicates) was 6.52 and 6.31, the ZNF193 expression level (gene ZNF193, 9147791-treated cells, two replicates) was 10.85 and the ZNF195 expression level (gene ZNF195, 9147791-treated cells, two replicates) was 11.04 and 10.45. For the same compound, the ZNF319 expression level (gene ZNF319, 9147791-treated cells, two replicates) was 3.69 and 3.71, the ZNF320 expression level (gene ZNF320, 9147791-treated cells, two replicates) was 11.36 and 12.30 and the ZNF354A expression level (gene ZNF354A, 9147791-treated cells, two replicates) was 9.92 and 9.13. The ZNF445 expression level (gene ZNF445, 9147791-treated cells, two replicates) was 5.75 and 5.83, the ZNF566 expression level (gene ZNF566, 9147791-treated cells, two replicates) was 3.15 and 2.91 and the ZNF619 expression level (gene ZNF619, 9147791-treated cells, two replicates) was 2.16 and 1.99. For the same compound, the ZNF664 expression level (gene ZNF664, 9147791-treated cells, two replicates) was 57.01 and 56.94, the ZNF700 expression level (gene ZNF700, 9147791-treated cells, two replicates) was 10.30 and 10.08 and the ZNF706 expression level (gene ZNF706, 9147791-treated cells, two replicates) was 34.34 and 36.65. The ZNF764 expression level (gene ZNF764, 9147791-treated cells, two replicates) was 5.35 and 5.20, the ZNF780B expression level (gene ZNF780B, 9147791-treated cells, two replicates) was 4.74 and 4.46 and the ZNF800 expression level (gene ZNF800, 9147791-treated cells, two replicates) was 6.37 and 6.62. For the same compound, the ZRSR2 expression level (gene ZRSR2, 9147791-treated cells, two replicates) was 34.69 and 32.80, the ZSWIM7 expression level (gene ZSWIM7, 9147791-treated cells, two replicates) was 4.48 and 4.71 and the “genes with changes of <fivefold in expression” value (of ~10,000 genes detected) was 85. The “genes with changes of <tenfold in expression” value (of ~10,000 genes detected) was 4.
